# According to patent US10273234B2, “Compounds that are S1P modulating agents and/or ATX modulating agents” (BIOGEN MA INC., priority 2012, dated 2019):
# Biological target: Human ATX protein (Homo sapiens (Human), UniProt Q13822)
# Experiment: ATX biochemical FRET assay with FS-3 substrate
# Conditions: 1.0 μg/mL ATX, 2 μM FS-3, 2 hours at room temperature
# Source text: ATX (Autotaxin) is a 125 KDa glycoprotein with lysophospholipase D (LPLD) activity that generates the bioactive lipid lysophosphatidic acid (LPA) from lysophosphatidylcholine (LPC). The ATX biochemical assay utilizes a FRET (fluorescence resonance energy transfer) technology platform. The fluorescence signal of FRET substrate FS-3 is quenched due to intra-molecular FRET of a fluorophore to a non-fluorescing quencher (Ferguson, C. G., et al., Org Lett. 2006 May 11; 8(10): 2023-2026, which is incorporated by reference in its entirety). ATX catalyzes the hydrolysis of the substrate which separates the dabsyl quencher from the fluorescein reporter, which becomes fluorescent. The reaction is monitored by a SpectraMax M5 (Molecular Devices, Sunnyvale, Calif.) with at excitation wavelength 485 nm and emission wavelength […].
# 2×ATX assay buffer: 100 mM Tris, 280 mM NaCl, 10 mM KCl, 2 mM CaCl2, 2 mM MgCl2, pH 7.4.
# Human ATX protein: expressed and purified in house. Stored at −80° C.
# Substrate FS-3 (Echelon, L-2000): 100 μg in 77.74 μL H2O (1 mM stock), stored at −20° C.
# Compound dilution—All compounds were provided at 10 mM in 100% DMSO. In the first well, 2 μL of 10 mM compound was added to 78 μL of DMSO (1:40 dilution). In subsequent wells 3-fold dilution (total 10 dilutions) were performed.
# 1×ATX assay buffer was made up with a final concentration of 1 mg/mL fatty acid free-BSA using 2×ATX assay buffer, 10 mg/ml fatty acid free-BSA and ddH2O.
# ATX protein was diluted with 1×ATX assay buffer to a concentration of 1.32 μg/mL (1.32×). 38 μL was added per well to the assay plate. The final concentration of ATX in the reaction as 1.0 μg/mL.
# 2 μL per well of compounds was transferred to provide the desired concentration. The plate was centrifuged, then incubated at room temperature for 30 minutes on the shaker.
# FS-3 was diluted with 1×ATX assay buffer to a concentration of FS-3 of 10 μM (5×). Then, 10 μL was added per well to the assay plate. The final concentration of FS-3 in the reaction was 2 μM. The plate was centrifuged. The plate was kept shaking at room temperature for 2 hours. Because FS-3 substrate is light sensitive, plates were kept covered and protected from light.
# Fluorescence was measured using SpectraMax M5 (excitation at 485 nm/emission at 538 nm, top read).
row,Compound,IC50
1,"CC(C)(C)[C@H]1CC[C@H](Oc2cccc3cc(CN4C5CCC4CC(C(=O)O)C5)ccc23)CC1 (stereo partly drawn) [Example 1, 8-((5-((trans-4-(tert-butyl)cyclohexyl)oxy)naphthalen-2-yl)methyl)-8-azabicyclo[3.2.1]octane-3-carboxylic acid]",0.5 to 5 µM
2,"CC(C)(C)[C@H]1CC[C@H](Oc2cccc3cc(CN4C5CCCC4CC(C(=O)O)C5)ccc23)CC1 (stereo partly drawn) [Example 2, 9-((5-((trans-4-(tert-butyl)cyclohexyl)oxy)naphthalen-2-yl)methyl)-9-azabicyclo[3.3.1]nonane-3-carboxylic acid]",> 5 µM
3,"CC1(C)C(NCc2ccc3c(O[C@H]4CC[C@H](C(C)(C)C)CC4)cccc3c2)CC1C(=O)O (stereo partly drawn) [Example 3, 3-(((5-((trans-4-(tert-butyl)cyclohexyl)oxy)naphthalen-2-yl)methyl)amino)-2,2-dimethylcyclobutanecarboxylic acid]",0.5 to 5 µM
4,"CC(C)(C)[C@H]1CC[C@H](Oc2cccc3cc(CN4CC(C(=O)O)C4)ccc23)CC1 [Example 4, 1-((5-((trans-4-(tert-butyl)cyclohexyl)oxy)naphthalen-2-yl)methyl)azetidine-3-carboxylic acid]",< 0.5 µM
5,"CC(C)(C)[C@H]1CC[C@H](Oc2cccc3cc(CN4CC5CC(C(=O)O)CC5C4)ccc23)CC1 (stereo partly drawn) [Example 5, 2-((5-((trans-4-(tert-butyl)cyclohexyl)oxy)naphthalen-2-yl)methyl)octahydrocyclopenta[c]pyrrole-5-carboxylic acid]",0.5 to 5 µM
6,"CC(C)(C)[C@H]1CC[C@H](Oc2cccc3cc(CNC4CC(C(=O)O)C4)ccc23)CC1 (stereo partly drawn) [Example 7, 3-(((5-((trans-4-(tert-butyl)cyclohexyl)oxy)naphthalen-2-yl)methyl)amino)cyclobutanecarboxylic acid]",0.5 to 5 µM
7,"CC(C)(C)[C@H]1CC[C@H](Oc2cccc3cc(CN4CCCC(C(=O)O)CC4)ccc23)CC1 (stereo partly drawn) [Example 8, 1-((5-((trans-4-(tert-butyl)cyclohexyl)oxy)naphthalen-2-yl)methyl)azepane-4-carboxylic acid]",> 5 µM
8,"O=C(O)C1CCN(Cc2ccc3c(O[C@H]4CC[C@H](C(F)(F)F)CC4)cccc3c2)CC1 [Example 9, 1-((5-((trans-4-(trifluoromethyl)cyclohexyl)oxy)naphthalen-2-yl)methyl)piperidine-4-carboxylic acid]",0.5 to 5 µM
9,"O=C(O)C1CCN(Cc2ccc3c(O[C@H]4CC[C@@H](C(F)(F)F)CC4)cccc3c2)CC1 [Example 10, 1-((5-((cis-4-(trifluoromethyl)cyclohexyl)oxy)naphthalen-2-yl)methyl)piperidine-4-carboxylic acid]",> 5 µM
10,"CC(C)[C@H]1CC[C@@H](Oc2cccc3cc(CN4CCC(C(=O)O)CC4)ccc23)CC1 [Example 11, 1-((5-((cis-4-isopropylcyclohexyl)oxy)naphthalen-2-yl)methyl)piperidine-4-carboxylic acid]",> 5 µM
11,"CC[C@H]1CC[C@@H](Oc2cccc3cc(CN4CCC(C(=O)O)CC4)ccc23)CC1 [Example 12, 1-((5-((cis-4-ethylcyclohexyl)oxy)naphthalen-2-yl)methyl)piperidine-4-carboxylic acid]",0.5 to 5 µM
12,"CC(C)[C@H]1CC[C@H](Oc2cccc3cc(CN4CCC(C(=O)O)CC4)ccc23)CC1 [Example 13, 1-((5-((trans-4-isopropylcyclohexyl)oxy)naphthalen-2-yl)methyl)piperidine-4-carboxylic acid]",0.5 to 5 µM
13,"CC[C@H]1CC[C@H](Oc2cccc3cc(CN4CCC(C(=O)O)CC4)ccc23)CC1 [Example 14, 1-((5-((trans-4-ethylcyclohexyl)oxy)naphthalen-2-yl)methyl)piperidine-4-carboxylic acid]",0.5 to 5 µM
14,"C[C@H]1CC[C@H](Oc2cccc3cc(CN4CCC(C(=O)O)CC4)ccc23)CC1 [Example 15, 1-((5-((trans-4-methylcyclohexyl)oxy)naphthalen-2-yl)methyl)piperidine-4-carboxylic acid]",0.5 to 5 µM
15,"C[C@H]1CC[C@@H](Oc2cccc3cc(CN4C5CCCC4CC(C(=O)O)C5)ccc23)CC1 (stereo partly drawn) [Example 26, 9-((5-((cis-4-methylcyclohexyl)oxy)naphthalen-2-yl)methyl)-9-azabicyclo[3.3.1]nonane-3-carboxylic acid]",0.5 to 5 µM
16,"C[C@H]1CC[C@@H](Oc2cccc3cc(CN4C5CCC4CC(C(=O)O)C5)ccc23)CC1 (stereo partly drawn) [Example 27, 8-((5-((cis-4-methylcyclohexyl)oxy)naphthalen-2-yl)methyl)-8-azabicyclo[3.2.1]octane-3-carboxylic acid]",0.5 to 5 µM

# The remaining lines, values ahead:
row,IC50,Compound
1,> 5 µM,"C[C@H]1CC[C@H](Oc2cccc3cc(CN4CC(C(=O)O)C4)ccc23)CC1 [Example 17, 1-((5-((trans-4-methylcyclohexyl)oxy)naphthalen-2-yl)methyl)azetidine-3-carboxylic acid]"
2,> 5 µM,"O=C(O)C1CN(Cc2ccc3c(O[C@H]4CC[C@H](c5ccccc5)CC4)cccc3c2)C1 [Example 18, 1-((5-((trans-4-phenylcyclohexyl)oxy)naphthalen-2-yl)methyl)azetidine-3-carboxylic acid]"
3,0.5 to 5 µM,"CC[C@H]1CC[C@H](Oc2cccc3cc(CN4CC(C(=O)O)C4)ccc23)CC1 [Example 19, 1-((5-((trans-4-ethylcyclohexyl)oxy)naphthalen-2-yl)methyl)azetidine-3-carboxylic acid]"
4,0.5 to 5 µM,"O=C(O)C1CN(Cc2ccc3c(O[C@H]4CC[C@H](C(F)(F)F)CC4)cccc3c2)C1 [Example 20, 1-((5-((trans-4-(trifluoromethyl)cyclohexyl)oxy)naphthalen-2-yl)methyl)azetidine-3-carboxylic acid]"
5,> 5 µM,"CC(C)[C@H]1CC[C@H](Oc2cccc3cc(CN4CC(C(=O)O)C4)ccc23)CC1 [Example 21, 1-((5-((trans-4-isopropylcyclohexyl)oxy)naphthalen-2-yl)methyl)azetidine-3-carboxylic acid]"
6,> 5 µM,"CCCC[C@H]1CC[C@H](Oc2cccc3cc(CN4CC(C(=O)O)C4)ccc23)CC1 [Example 22, 1-((5-((trans-4-butylcyclohexyl)oxy)naphthalen-2-yl)methyl)azetidine-3-carboxylic acid]"
7,> 5 µM,"O=C(O)C1CN(Cc2ccc3c(O[C@H]4CC[C@H](C5CCCC5)CC4)cccc3c2)C1 [Example 23, 1-((5-((trans-4-cyclopentylcyclohexyl)oxy)naphthalen-2-yl)methyl)azetidine-3-carboxylic acid]"
8,< 0.5 µM,"CC(C)(C)[C@H]1CC[C@H](Oc2cccc3cc(CN4CCC(C(=O)O)CC4)ccc23)CC1 [Example 24, 1-((5-((trans-4-(tert-butyl)cyclohexyl)oxy)naphthalen-2-yl)methyl)piperidine-4-carboxylic acid]"
9,> 5 µM,"CCCCCCCOc1cccc2cc(CN3CCC(C(=O)O)CC3)ccc12 [Example 25, 1-((5-(heptyloxy)naphthalen-2-yl)methyl)piperidine-4-carboxylic acid]"
10,> 5 µM,"C[C@H]1CC[C@@H](Oc2cccc3cc(CN4CCC(C(=O)O)CC4)ccc23)CC1 [Example 28, 1-((5-((cis-4-methylcyclohexyl)oxy)naphthalen-2-yl)methyl)piperidine-4-carboxylic acid]"
